The results in this text go back to ChEMBL document CHEMBL1136221, “Analysis of the critical structural determinant(s) of species-selective peroxisome proliferator-activated receptor alpha (PPAR alpha)-activation by phenylpropanoic acid-type PPAR alpha agonists” (Bioorg Med Chem Lett, 2003).

Holding throughout (type): cell-based
In assay [1] the target is T1, Peroxisome proliferator-activated receptor alpha (Homo sapiens, UniProt Q07869).
T1 sequence (Q07869 whole entry): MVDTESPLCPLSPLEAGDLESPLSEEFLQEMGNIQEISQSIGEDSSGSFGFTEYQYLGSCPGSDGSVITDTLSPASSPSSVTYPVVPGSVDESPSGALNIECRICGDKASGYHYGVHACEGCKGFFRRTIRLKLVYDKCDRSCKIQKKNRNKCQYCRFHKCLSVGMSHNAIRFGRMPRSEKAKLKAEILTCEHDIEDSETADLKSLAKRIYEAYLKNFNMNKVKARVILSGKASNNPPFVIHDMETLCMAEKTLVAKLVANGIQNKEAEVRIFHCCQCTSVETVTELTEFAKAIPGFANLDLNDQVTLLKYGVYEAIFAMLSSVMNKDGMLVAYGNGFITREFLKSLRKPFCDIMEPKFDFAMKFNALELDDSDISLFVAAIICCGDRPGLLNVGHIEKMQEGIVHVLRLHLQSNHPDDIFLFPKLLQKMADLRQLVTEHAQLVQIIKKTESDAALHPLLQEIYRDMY
The experiment in a line: Transcriptional activation activity on human Peroxisome proliferator activated receptor alpha expressed in CHO-K1 cells.

In assay [2] the target is Peroxisome proliferator-activated receptor alpha (Homo sapiens, UniProt Q07869, T279M). Briefly: Transcriptional activation activity on human T279M-mutant Peroxisome proliferator activated receptor alpha expressed in CHO-K1 cells.
Assay [3] has as its system Peroxisome proliferator-activated receptor alpha (Homo sapiens), Q07869 [UNDEFINED MUTATION]. Briefly: Ratio of transcriptional activation of I272F mutant compared to wild type PPAR-GAL4 chimeric receptors in CHO-K1 cells.
Assay [4] shares this test system. Briefly: Ratio of transcriptional activation of T279M mutant compared to wild type PPAR-GAL4 chimeric receptors in CHO-K1 cells.
Assay [5] addresses Peroxisome proliferator-activated receptor alpha (Homo sapiens, UniProt Q07869, I272F). Briefly: Transcriptional activation activity on human I272F-mutant Peroxisome proliferator activated receptor alpha expressed in CHO-K1 cells.
Assay [6] relates to T2, Peroxisome proliferator-activated receptor alpha (Homo sapiens), Q07869 [I272F].
T2 sequence (whole entry): T1 sequence (Q07869 whole entry) with I272F
Briefly: Transcriptional activation activity on human I272F-mutant Peroxisome proliferator activated receptor alpha expressed in CHO-K1 cells at 10 uM.

Molecules are shown by their SMILES. Where a chain is given by its changes, count along the chain named.

Peroxisome proliferator-activated receptor alpha (Homo sapiens, UniProt Q07869, I272F), sequence (Q07869 whole entry I272F): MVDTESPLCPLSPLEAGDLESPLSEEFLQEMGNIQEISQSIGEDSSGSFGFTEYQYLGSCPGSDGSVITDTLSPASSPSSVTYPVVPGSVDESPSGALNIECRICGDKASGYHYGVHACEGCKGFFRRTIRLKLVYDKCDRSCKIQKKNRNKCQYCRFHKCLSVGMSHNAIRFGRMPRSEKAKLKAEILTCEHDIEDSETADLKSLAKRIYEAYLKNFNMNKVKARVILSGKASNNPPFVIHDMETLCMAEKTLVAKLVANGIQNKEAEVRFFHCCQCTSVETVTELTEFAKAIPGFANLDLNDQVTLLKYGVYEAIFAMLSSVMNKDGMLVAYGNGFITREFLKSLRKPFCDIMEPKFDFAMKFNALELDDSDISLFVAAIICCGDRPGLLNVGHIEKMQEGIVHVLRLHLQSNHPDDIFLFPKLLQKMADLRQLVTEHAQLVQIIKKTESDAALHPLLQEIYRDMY
Peroxisome proliferator-activated receptor alpha (Homo sapiens, UniProt Q07869, T279M), sequence (Q07869 whole entry T279M, the tested form may be a part): as the sequence (Q07869 whole entry I272F) above, with F272I, T279M counted along it

Usually EC50 stands for the concentration giving half of the maximal effect. High values mean a less potent agent, low ones a more potent agent. As to `CC[C@@H](Cc1ccc(OC)c(C(=O)NCc2ccc(Oc3ccc(F)cc3)cc2)c1)C(=O)O`, the EC50 worked out at 0.615 nM in assay [1], 14 nM in assay [2] and 667 nM in assay [5]. Further, the Ratio in assay [3] worked out at 108; in assay [4] it was 2.28.
Turning to `CC[C@@H](Cc1ccc(OC)c(OCCc2ccc(C(F)(F)F)cc2)c1)C(=O)O`, the figures for the EC50 in assay [1], in assay [2] and in assay [5] were 2720 nM, 16100 nM and 33400 nM, respectively. Further, the Ratio in assay [3] was found to be 12.3; in assay [4], 5.92.
As for `CC[C@@H](Cc1ccc(OC)c(C(=O)NCc2ccc(C(F)(F)F)cc2)c1)C(=O)O`, the results for the EC50 in assay [1], in assay [2] and in assay [5] were 80.3 nM, 309 nM and 2820 nM, respectively.
For orientation: inhibition means the relative decrease from the control value, in per cent. As for `CC[C@@H](Cc1ccc(OC)c(C(=O)NCc2ccccc2)c1)C(=O)O`, the results for the EC50 in assay [1] and in assay [2] were 3380 nM and 11400 nM, respectively. Also, the Ratio in assay [4] was determined as 3.37. The inhibition in assay [6] worked out at 30%.
